Data taken from patent US9415035B2, “Compositions containing omega-3 oil with an anti-inflammatory agent and uses thereof” (Maine Natural Health Company, Inc., priority 2010, dated 2016).

Test system: companion animals (cats and dogs)
Assay: Companion animal mobility, further addition of glucosamine
Assay type: in vivo
Set-up: dose or concentration left out as unconfirmed
Conditions: glucosamine added to OmegaMaine omega-3 oil; data not shown
Method: Cats (n=5) were given 2.5 mL (½ teaspoon) of OmegaMaine liquid omega-3 oil by adding directly to their food. Dogs (n=5) were given 5 mL (1 teaspoon) of OmegaMaine omega-3 oil by adding directly to their food. For reference, 5 mL of OmegaMaine omega-3 oil contains, minimally, 800 mg of EPA, and, minimally, 750 mg of DHA. Animals were scored on a scale of 1 to 10, where 10 was behavior like a kitten or a puppy and 1 was severe immobility. All animals in the test group average 8 years of age. Animals were evaluated prior to treatment and 2 weeks after daily treatment with OmegaMaine omega-3 oil (Table 4).

N[C@H]1C(O)O[C@H](CO)[C@@H](O)[C@@H]1O (stereo partly shown) [glucosamine]
therapeutic benefit on mobility: additional therapeutic benefit
